Reference: ChEMBL document CHEMBL2417373, “Substituted tetrahydroisoquinolines as selective antagonists for the orexin 1 receptor” (J Med Chem, 2013)
Active and inactive are the calls of the source. The rule behind the calls is not given here.

Assays:
[1] = molecular target: T1, Orexin/Hypocretin receptor type 1 (Homo sapiens) (UniProt O43613); assay: Antagonist activity at OX1 receptor (unknown origin) expressed in RD-HGA16 cells assessed as inhibition orexin A-induced calcium mobilization by fluorescence assay; type: functional, cell-based
T1 sequence (whole entry): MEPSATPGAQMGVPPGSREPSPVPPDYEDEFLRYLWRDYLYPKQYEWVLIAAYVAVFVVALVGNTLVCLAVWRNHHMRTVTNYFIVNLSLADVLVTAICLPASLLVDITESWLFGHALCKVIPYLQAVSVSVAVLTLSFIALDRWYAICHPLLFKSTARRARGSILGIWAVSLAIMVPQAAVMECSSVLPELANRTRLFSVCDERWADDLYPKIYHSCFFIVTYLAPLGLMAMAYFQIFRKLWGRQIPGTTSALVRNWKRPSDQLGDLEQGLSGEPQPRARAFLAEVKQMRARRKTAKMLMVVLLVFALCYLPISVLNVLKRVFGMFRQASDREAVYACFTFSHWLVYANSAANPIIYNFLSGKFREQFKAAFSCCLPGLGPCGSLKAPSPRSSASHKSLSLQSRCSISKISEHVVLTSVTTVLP

[2] = molecular target: T2, Orexin receptor type 2 (Homo sapiens) (UniProt O43614); assay: Antagonist activity at OX2 receptor (unknown origin) expressed in RD-HGA16 cells assessed as inhibition orexin A-induced calcium mobilization at 10 uM by fluorescence assay; type: functional, cell-based
T2 sequence (whole entry): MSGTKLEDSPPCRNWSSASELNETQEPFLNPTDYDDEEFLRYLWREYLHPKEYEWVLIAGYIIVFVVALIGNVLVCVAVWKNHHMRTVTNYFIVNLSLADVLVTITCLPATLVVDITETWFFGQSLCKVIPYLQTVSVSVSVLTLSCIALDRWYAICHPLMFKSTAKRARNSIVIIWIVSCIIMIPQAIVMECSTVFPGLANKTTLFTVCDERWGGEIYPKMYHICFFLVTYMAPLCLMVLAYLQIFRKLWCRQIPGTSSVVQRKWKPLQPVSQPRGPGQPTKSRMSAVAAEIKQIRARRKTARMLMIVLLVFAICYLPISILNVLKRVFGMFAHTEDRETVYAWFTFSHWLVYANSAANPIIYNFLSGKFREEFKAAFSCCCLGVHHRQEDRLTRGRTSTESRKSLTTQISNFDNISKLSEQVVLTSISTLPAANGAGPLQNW

[3] = molecular target: T1, Orexin/Hypocretin receptor type 1 (Homo sapiens); assay: Agonist activity at OX1 receptor (unknown origin) expressed in RD-HGA16 cells assessed as calcium mobilization at 10 uM by fluorescence assay; type: functional, cell-based
Homo sapiens = species on record: Homo sapiens; assay: Selectivity ratio of Ke for OX2 receptor (unknown origin) to Ke for OX1 receptor (unknown origin)

| Ke(app) [1] [nM] | inhibition [2] [%] | Activity [3] | Ratio (Homo sapiens) | SMILES |
| --- | --- | --- | --- | --- |
| 118 | < 30 | inactive |  | COc1ccc(CC2c3cc(OS(=O)(=O)c4ccc(C)cc4)c(OC)cc3CCN2CC(=O)NCc2ccccc2)cc1OC (stereo not given) |
| 43.5 |  | inactive |  | COc1ccc(CC2c3cc(OCCCCOc4ccccc4)c(OC)cc3CCN2CC(=O)NCc2ccccc2)cc1OC (stereo not given) |
| 41.9 |  | inactive |  | CCCOc1cc2c(cc1OC)CCN(CC(=O)NCc1cccnc1)C2Cc1ccc(OC)c(OC)c1 (stereo not given) |
| 2370 | < 30 |  |  | COc1ccc(CC2c3cc(OC)c(OC)cc3CCN2CC(=O)NCCCc2ccccc2)cc1OC (stereo not given) |
| > 10000 | < 30 |  |  | COc1ccc(CC2c3cc(OCC4CCCCC4)c(OC)cc3CCN2CC(=O)NCc2ccccc2)cc1OC (stereo not given) |
| 3680 |  |  | 0.7 | CCCCCCNC(=O)Nc1ccc(CNC(=O)CN2CCc3cc(OC)c(OC)cc3C2Cc2ccc(OC)c(OC)c2)cc1 (stereo not given) |
| 3230 |  |  |  | COc1ccc(CC2c3cc(OC)c(OC)cc3CCN2CC(=O)NCc2ccc(N(C)C)cc2)cc1OC (stereo not given) |
| 8040 | < 30 |  |  | COc1ccc(CC2c3cc(OCCN4CCCCC4)c(OC)cc3CCN2CC(=O)NCc2ccccc2)cc1OC (stereo not given) |
| 2090 |  |  |  | COc1ccc(CC2c3cc(OC)c(OC)cc3CCN2CC(=O)N(C)Cc2ccccc2)cc1OC (stereo not given) |
| > 10000 | < 30 |  |  | COc1ccc(CC2c3cc(OC)c(OC)cc3CCN2CC(=O)N2CCN(c3ccccc3)CC2)cc1OC (stereo not given) |
| 1010 | < 30 |  |  | COc1ccc(CC2c3cc(OC)c(OC)cc3CCN2CC(=O)NCc2ccncc2)cc1OC (stereo not given) |
| 78.5 |  | inactive |  | CCCC(=O)Oc1cc2c(cc1OC)CCN(CC(=O)NCc1ccccc1)C2Cc1ccc(OC)c(OC)c1 (stereo not given) |
| 5740 | < 30 |  |  | COc1ccc(CC2c3cc(OCCCCN(C)C)c(OC)cc3CCN2CC(=O)NCc2ccccc2)cc1OC (stereo not given) |
| 4740 | < 30 |  |  | COc1ccc(CC2c3cc(OCCN(C)C)c(OC)cc3CCN2CC(=O)NCc2ccccc2)cc1OC (stereo not given) |
| 162 |  | inactive | 14 | COc1ccc(CC2c3cc(OC)c(OC)cc3CCN2CC(=O)NCc2ccc(Cl)cc2)cc1OC (stereo not given) |
| 87.4 |  | inactive |  | CCOc1cc2c(cc1OC)CCN(CC(=O)NCc1ccccn1)C2Cc1ccc(OC)c(OC)c1 (stereo not given) |
| > 10000 |  |  |  | CCCCCC(=O)Nc1ccc(CNC(=O)CN2CCc3cc(OC)c(OC)cc3C2Cc2ccc(OC)c(OC)c2)cc1 (stereo not given) |
| 10 |  | inactive |  | COc1ccc(CC2c3cc(OS(=O)(=O)C(F)(F)F)c(OC)cc3CCN2CC(=O)NCc2ccccc2)cc1OC (stereo not given) |
| 8980 | < 30 |  |  | COc1ccc(CC2c3cc(OC)c(OC)cc3CCN2CC(=O)Nc2cccc(-c3ccccc3)c2)cc1OC (stereo not given) |

| Ke(app) [1] [nM] | inhibition [2] [%] | Activity [3] | Ratio (Homo sapiens) | SMILES |
| --- | --- | --- | --- | --- |
| 7.3 |  | inactive | 297 | COc1ccc(CC2c3cc(OS(C)(=O)=O)c(OC)cc3CCN2CC(=O)NCc2ccccc2)cc1OC (stereo not given) |
| 279 |  | inactive | 12.4 | COc1ccc(CC2c3cc(OC)c(OC)cc3CCN2CC(=O)NCc2ccc(F)cc2)cc1OC (stereo not given) |
| > 10000 | < 30 |  |  | COc1ccc(CC2c3cc(OC)c(OC)cc3CCN2CC(=O)N[C@@H](C)c2ccccc2)cc1OC (single isomer, unassigned; diastereomer 1) |
| 17.3 |  | inactive |  | CCCOc1cc2c(cc1OC)CCN(CC(=O)NCc1ccccc1)C2Cc1ccc(OC)c(OC)c1 (stereo not given) |
| > 10000 | < 30 |  |  | COc1ccc(CC2c3cc(OC)c(OC)cc3CCN2CC(=O)NCCCN(C)C)cc1OC (stereo not given) |
| 3030 |  |  | 3 | COc1ccc(CC2c3cc(OC)c(OC)cc3CCN2CC(=O)N2CCc3ccccc3C2)cc1OC (stereo not given) |
| > 10000 | < 30 |  |  | COc1ccc(CC2c3cc(OC)c(OC)cc3CCN2CC(=O)N2CCC(c3ccccc3)CC2)cc1OC (stereo not given) |
| 326 |  | inactive | 12 | COc1ccc(CC2c3cc(OCCC(C)C)c(OC)cc3CCN2CC(=O)NCc2ccccc2)cc1OC (stereo not given) |
| 1530 |  |  | 3.8 | COc1cc2c(cc1O)C(Cc1ccc(OC)c(OC)c1)N(CC(=O)NCc1ccccc1)CC2 (stereo not given) |
| 944 |  | inactive | 1.9 | COc1ccc(CC2c3cc(OC)c(OC)cc3CCN2CC(=O)Nc2ccccc2-c2ccccc2)cc1OC (stereo not given) |
| 199 |  | inactive |  | COc1ccc(CC2c3cc(OC)c(OC)cc3CCN2CC(=O)NCc2ccccc2)cc1OC (stereo not given) |
| 277 | < 30 | inactive |  | COc1ccc(CC2c3cc(OCc4cccnc4)c(OC)cc3CCN2CC(=O)NCc2ccccc2)cc1OC (stereo not given) |
| 4510 | < 30 |  |  | COc1ccc(CC2c3cc(OC)c(OC)cc3CCN2CC(=O)Nc2cc(C)nc3ccccc23)cc1OC (stereo not given) |
| 7640 | < 30 |  |  | CNC(=O)CNC(=O)CN1CCc2cc(OC)c(OC)cc2C1Cc1ccc(OC)c(OC)c1 (stereo not given) |
| 6630 | < 30 |  |  | COC(=O)CNC(=O)CN1CCc2cc(OC)c(OC)cc2C1Cc1ccc(OC)c(OC)c1 (stereo not given) |
| 41.1 |  | inactive | 15.9 | COc1ccc(CC2c3cc(OC)c(OC)cc3CCN2CC(=O)NC2CCCc3ccccc32)cc1OC (stereo not given) |
| 3250 | < 30 |  |  | COc1ccc(CC2c3cc(OC)c(OC)cc3CCN2CC(=O)NCCc2ccccc2)cc1OC (stereo not given) |
| 30 |  | inactive |  | CCOc1cc2c(cc1OC)CCN(CC(=O)NCc1ccccc1)C2Cc1ccc(OC)c(OC)c1 (stereo not given) |
| 15.7 |  | inactive |  | CCOc1cc2c(cc1OC)CCN(CC(=O)NCc1cccnc1)C2Cc1ccc(OC)c(OC)c1 (stereo not given) |

| Ke(app) [1] [nM] | inhibition [2] [%] | Activity [3] | Ratio (Homo sapiens) | SMILES |
| --- | --- | --- | --- | --- |
| 20.6 |  | inactive |  | CCCOc1cc2c(cc1OC)CCN(CC(=O)NCc1ccccn1)C2Cc1ccc(OC)c(OC)c1 (stereo not given) |
| 261 |  | inactive |  | COc1ccc(CC2c3cc(OC)c(OC)cc3CCN2CC(=O)NCc2ccccn2)cc1OC (stereo not given) |
| 402 | < 30 | inactive |  | COc1ccc(CC2c3cc(OCc4ccccc4)c(OC)cc3CCN2CC(=O)NCc2ccccc2)cc1OC (stereo not given) |
| > 10000 | < 30 |  |  | COc1ccc(CC2c3cc(OC)c(OC)cc3CCN2CC(=O)NCc2ccc(NC(C)=O)cc2)cc1OC (stereo not given) |
| > 10000 | < 30 |  |  | COc1ccc(CC2c3cc(OC)c(OC)cc3CCN2CC(=O)NCC(N)=O)cc1OC (stereo not given) |
| 315 |  | inactive |  | CCCCCCOc1cc2c(cc1OC)CCN(CC(=O)NCc1ccccc1)C2Cc1ccc(OC)c(OC)c1 (stereo not given) |
| 152 |  | inactive |  | COc1ccc(CC2c3cc(OC)c(OC)cc3CCN2CC(=O)NCc2cccnc2)cc1OC (stereo not given) |
| 4220 | < 30 |  |  | COc1ccc(CC2c3cc(OC)c(OC)cc3CCN2CC(=O)Nc2ccnc3c(F)cccc23)cc1OC (stereo not given) |
| 22.5 |  | inactive |  | COc1ccc(CC2c3cc(OCC(F)(F)F)c(OC)cc3CCN2CC(=O)NCc2ccccn2)cc1OC (stereo not given) |
| 101 | < 30 | inactive |  | COc1ccc(CC2c3cc(OCc4ccccn4)c(OC)cc3CCN2CC(=O)NCc2ccccc2)cc1OC (stereo not given) |
| 3530 |  |  | 2.6 | COc1ccc(CC2c3cc(OC)c(OC)cc3CCN2CC(=O)N2CCCC(c3ccccc3)C2)cc1OC (stereo not given) |
| 2240 | < 30 |  |  | COc1ccc(CC2c3cc(OC)c(OC)cc3CCN2CC(=O)Nc2ccc(-c3ccccc3)cc2)cc1OC (stereo not given) |
| 732 | < 30 | inactive |  | COc1ccc(CC2c3cc(OC)c(OC)cc3CCN2CC(=O)Nc2cccc3ccccc23)cc1OC (stereo not given) |
| 54.7 |  | inactive | 34.6 | CCCCOc1cc2c(cc1OC)CCN(CC(=O)NCc1ccccc1)C2Cc1ccc(OC)c(OC)c1 (stereo not given) |
| 589 |  | inactive | 3.9 | CCCCCCCNC(=O)CN1CCc2cc(OC)c(OC)cc2C1Cc1ccc(OC)c(OC)c1 (stereo not given) |
| 30.5 |  | inactive | 95.1 | COc1ccc(CC2c3cc(OS(=O)(=O)c4ccccc4)c(OC)cc3CCN2CC(=O)NCc2ccccc2)cc1OC (stereo not given) |
| 7170 | < 30 |  |  | COc1ccc(CC2c3cc(OC)c(OC)cc3CCN2CC(=O)NC2CC(C)Nc3ccccc32)cc1OC (stereo not given) |
| > 10000 | < 30 |  |  | COc1ccc(CC2c3cc(OC)c(OC)cc3CCN2CC(=O)OCc2ccccc2)cc1OC (stereo not given) |
| 9.4 |  | inactive |  | COc1ccc(CC2c3cc(OCC(F)(F)F)c(OC)cc3CCN2CC(=O)NCc2ccccc2)cc1OC (stereo not given) |
